According to BigSolDB 2.1:

CN1c2ccccc2C(=O)N2CCc3c([nH]c4ccccc34)[C@H]21
solubility (mole fraction)
Details | 283.15 K | 288.15 K | 293.15 K | 298.15 K | 303.15 K | 308.15 K | 313.15 K | 318.15 K | 323.15 K
in acetone | 0.000192 | 0.000226 | 0.000267 | 0.000315 | 0.000364 | 0.000426 | 0.000491 | 0.000571 | 0.000651
in ethanol | 5.94e-05 | 7.31e-05 | 8.95e-05 | 0.00011 | 0.000132 | 0.000157 | 0.000186 | 0.000222 | 0.000263
in isopropanol | 6.79e-05 | 8.16e-05 | 9.91e-05 | 0.000121 | 0.000142 | 0.00017 | 0.0002 | 0.000237 | 0.000276
in methanol | 3.43e-05 | 4.34e-05 | 5.4e-05 | 6.72e-05 | 8.31e-05 | 0.000102 | 0.000124 | 0.000149 | 0.000182
